Laboratory results reported in patent publication US8378104B2 (OSI Pharmaceuticals, LLC, priority 2010, dated 2013).
pIC50: −log10 of the molar value.

Molecular target: T1, TAK1-TAB1 fusion protein (Homo sapiens, UniProt O43318)
T1 construct: purchased Carna
T1 sequence (O43318 with tags, fused parts or gaps limits assumed): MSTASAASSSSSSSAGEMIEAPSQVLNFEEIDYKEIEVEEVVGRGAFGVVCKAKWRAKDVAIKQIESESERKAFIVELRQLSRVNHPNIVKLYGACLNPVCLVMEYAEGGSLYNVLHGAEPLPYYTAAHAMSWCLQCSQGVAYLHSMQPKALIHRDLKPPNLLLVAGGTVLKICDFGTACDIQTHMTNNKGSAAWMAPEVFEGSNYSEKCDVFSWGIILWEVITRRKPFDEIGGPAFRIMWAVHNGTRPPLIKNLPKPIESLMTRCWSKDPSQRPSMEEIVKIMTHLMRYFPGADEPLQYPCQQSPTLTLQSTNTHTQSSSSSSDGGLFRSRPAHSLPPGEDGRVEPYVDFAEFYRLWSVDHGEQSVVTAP
Test: TAK1 biochemical assay (AlphaScreen, GST-MAP2K7 substrate)
Settings: TAK1-TAB1 fusion protein, GST-MAP2K7 substrate; read-out: mean TAK1 IC50 (Col. A)

| Compound | pIC50 |
| --- | --- |
| CC(=O)N1CCC(n2cc(-c3cnc(N)c4oc(-c5cccc(C(N)=O)c5)cc34)cn2)CC1 [Example 122, 3-{4-[1-(1-acetylpiperidin-4-yl)-1H-pyrazol-4-yl]-7-aminofuro[2,3-c]pyridin-2-yl}benzamide] | 6.00 to 7.00 |
| CC(=O)N1CCC(n2cc(-c3cnc(N)c4oc(-c5ccc(C(=O)N(C)C)cc5)cc34)cn2)CC1 [Example 125, 4-{4-[1-(1-acetylpiperidin-4-yl)-1H-pyrazol-4-yl]-7-aminofuro[2,3-c]pyridin-2-yl}-N,N-dimethylbenzamide] | < 5.00 |
| CC(=O)Nc1ccc(-c2cc3c(-c4cnn(C5CCN(C(C)=O)CC5)c4)cnc(N)c3o2)cn1 [Example 126, N-(5-{4-[1-(1-acetylpiperidin-4-yl)-1H-pyrazol-4-yl]-7-aminofuro[2,3-c]pyridin-2-yl}pyridin-2-yl)acetamide] | 5.00 to 6.00 |
| CC(=O)N1CCC(n2cc(-c3cnc(N)c4oc(-c5cccc(C(=O)N6CCOCC6)c5)cc34)cn2)CC1 [Example 127, 1-[4-(4-{7-amino-2-[3-(morpholin-4-ylcarbonyl)phenyl]furo[2,3-c]pyridin-4-yl}-1H-pyrazol-1-yl)piperidin-1-yl]ethanone] | 5.00 to 6.00 |
| CC(=O)N1CCC(n2cc(-c3cnc(N)c4oc(-c5ccc(-c6ccn[nH]6)cc5)cc34)cn2)CC1 [Example 128, 1-[4-(4-{7-amino-2-[4-(1H-pyrazol-5-yl)phenyl]furo[2,3-c]pyridin-4-yl}-1H-pyrazol-1-yl)piperidin-1-yl]ethanone] | 5.00 to 6.00 |
| CC(=O)N1CCC(n2cc(-c3cnc(N)c4oc(-c5cccc(N)c5)cc34)cn2)CC1 [Example 130, 1-(4-{4-[7-amino-2-(3-aminophenyl)furo[2,3-c]pyridin-4-yl]-1H-pyrazol-1-yl}piperidin-1-yl)ethanone] | 6.00 to 7.00 |
| CC(=O)N1CCC(n2cc(-c3cnc(N)c4oc(-c5cccc(S(=O)(=O)N(C)C)c5)cc34)cn2)CC1 [Example 134, 3-{4-[1-(1-acetylpiperidin-4-yl)-1H-pyrazol-4-yl]-7-aminofuro[2,3-c]pyridin-2-yl}-N,N-dimethylbenzenesulfonamide] | 5.00 to 6.00 |
| CC(=O)Nc1cccc(-c2cc3c(-c4cnn(C5CCN(C(C)=O)CC5)c4)cnc(N)c3o2)c1 [Example 137, N-(3-{4-[1-(1-acetylpiperidin-4-yl) 1H-pyrazol-4-yl]-7-aminofuro[2,3-c]pyridin-2-yl}phenyl)acetamide] | 5.00 to 6.00 |
| CC(=O)N1CCC(n2cc(-c3cnc(N)c4oc(-c5ccc(N6CCCC6)nc5)cc34)cn2)CC1 [Example 139, 1-[4-(4-{7-amino-2-[6-(pyrrolidin-1-yl)pyridin-3-yl]furo[2,3-c]pyridin-4-yl}-1H-pyrazol-1-yl)piperidin-1-yl]ethanone] | < 5.00 |
| CC(=O)N1CCC(n2cc(-c3cnc(N)c4oc(-c5ccc(N)c(C)c5)cc34)cn2)CC1 [Example 140, 1-(4-{4-[7-amino-2-(4-amino-3-methylphenyl)furo[2,3-c]pyridin-4-yl]-1H-pyrazol-1-yl}piperidin-1-yl)ethanone] | 5.00 to 6.00 |
| CC(=O)Nc1ccccc1-c1cc2c(-c3cnn(C4CCN(C(C)=O)CC4)c3)cnc(N)c2o1 [Example 141, N-(2-{4-[1-(1-acetylpiperidin-4-yl)-1H-pyrazol-4-yl]-7-aminofuro[2,3-c]pyridin-2-yl}phenyl)acetamide] | < 5.00 |
| CC(=O)N1CCC(n2cc(-c3cnc(N)c4oc(-c5ccc6c(c5)NC(=O)C6)cc34)cn2)CC1 [Example 144, 6-{4-[1-(1-acetylpiperidin-4-yl)-1H-pyrazol-4-yl]-7-aminofuro[2,3-c]pyridin-2-yl}-1,3-dihydro-2H-indol-2-one] | 5.00 to 6.00 |
| CC(=O)N1CCC(n2cc(-c3cnc(N)c4oc(-c5ccc(N)nc5)cc34)cn2)CC1 [Example 147, 1-(4-{4-[7-amino-2-(6-aminopyridin-3-yl)furo[2,3-c]pyridin-4-yl]-1H-pyrazol-1-yl}piperidin-1-yl)ethanone] | 6.00 to 7.00 |
| COc1cc(-c2cc3c(-c4cnn(C5CCN(C(C)=O)CC5)c4)cnc(N)c3o2)ccc1N [Example 150, 1-(4-{4-[7-amino-2-(4-amino-3-methoxyphenyl)furo[2,3-c]pyridin-4-yl]-1H-pyrazol-1-yl}piperidin-1-yl)ethanone] | 5.00 to 6.00 |
| CC(=O)N1CCC(n2cc(-c3cnc(N)c4oc(-c5cnn(Cc6ccncc6)c5)cc34)cn2)CC1 [Example 151, 1-[4-(4-{7-amino-2-[1-(pyridin-4-ylmethyl)-1H-pyrazol-4-yl]furo[2,3-c]pyridin-4-yl}-1H-pyrazol-1-yl)piperidin-1-yl]ethanone] | 5.00 to 6.00 |
| CC(=O)N1CCC(n2cc(-c3cnc(N)c4oc(C5CCCCC5)cc34)cn2)CC1 [Example 152, 1-{4-[4-(7-amino-2-cyclohexylfuro[2,3-c]pyridin-4-yl)-1H-pyrazol-1-yl]piperidin-1-yl}ethanone] | 6.00 to 7.00 |

| Compound | pIC50 |
| --- | --- |
| CC(=O)N1CCC(n2cc(-c3cnc(N)c4oc(C5=CCCC5)cc34)cn2)CC1 [Example 153, 1-(4-{4-[7-amino-2-(cyclopent-1-en-1-yl)furo[2,3-c]pyridin-4-yl]-1H-pyrazol-1-yl}piperidin-1-yl)ethanone] | 5.00 to 6.00 |
| CC(=O)N1CCC(n2cc(-c3cnc(N)c4oc(-c5ccc(COc6cccc7ccccc67)cc5)cc34)cn2)CC1 [Example 156, 1-{4-[4-(7-amino-2-{4-[(naphthalen-1-yloxy)methyl]phenyl}furo[2,3-c]pyridin-4-yl)-1H-pyrazol-1-yl]piperidin-1-yl}ethanone] | < 5.00 |
| CC(=O)N1CCC(n2cc(-c3cnc(N)c4oc(-c5ccc6c(c5)OCCO6)cc34)cn2)CC1 [Example 157, 1-(4-{4-[7-amino-2-(2,3-dihydro-1,4-benzodioxin-6-yl)furo[2,3-c]pyridin-4-yl]-1H-pyrazol-1-yl}piperidin-1-yl)ethanone] | 6.00 to 7.00 |
| CC(=O)N1CCC(n2cc(-c3cnc(N)c4oc(-c5ccc(Oc6ccccc6)cc5)cc34)cn2)CC1 [Example 159, 1-(4-{4-[7-amino-2-(4-phenoxyphenyl)furo[2,3-c]pyridin-4-yl]-1H-pyrazol-1-yl}piperidin-1-yl)ethanone] | < 5.00 |
| CC(=O)N1CCC(n2cc(-c3cnc(N)c4oc(-c5cccc(-c6ccccc6)c5)cc34)cn2)CC1 [Example 160, 1-(4-{4-[7-amino-2-(biphenyl-3-yl)furo[2,3-c]pyridin-4-yl]-1H-pyrazol-1-yl}piperidin-1-yl)ethanone] | 5.00 to 6.00 |
| COc1cccc(-c2cc3c(-c4cnn(C5CCN(C(C)=O)CC5)c4)cnc(N)c3o2)c1 [Example 161, 1-(4-{4-[7-amino-2-(3-methoxyphenyl)furo[2,3-c]pyridin-4-yl]-1H-pyrazol-1-yl}piperidin-1-yl)ethanone] | 5.00 to 6.00 |
| CCOc1cccc(-c2cc3c(-c4cnn(C5CCN(C(C)=O)CC5)c4)cnc(N)c3o2)c1 [Example 162, 1-(4-{4-[7-amino-2-(3-ethoxyphenyl)furo[2,3-c]pyridin-4-yl]-1H-pyrazol-1-yl}piperidin-1-yl)ethanone] | 5.00 to 6.00 |
| CC(=O)N1CCC(n2cc(-c3cnc(N)c4oc(-c5cccc(OC(F)(F)F)c5)cc34)cn2)CC1 [Example 163, 1-[4-(4-{7-amino-2-[3-(trifluoromethoxy)phenyl]furo[2,3-c]pyridin-4-yl}-1H-pyrazol-1-yl)piperidin-1-yl]ethanone] | 5.00 to 6.00 |
| CC(=O)N1CCC(n2cc(-c3cnc(N)c4oc(-c5cccc(OCc6ccccc6)c5)cc34)cn2)CC1 [Example 164, 1-[4-(4-{7-amino-2-[3-(benzyloxy)phenyl]furo[2,3-c]pyridin-4-yl}-1H-pyrazol-1-yl)piperidin-1-yl]ethanone] | < 5.00 |
| CC(=O)N1CCC(n2cc(-c3cnc(N)c4oc(-c5cccc(OC(C)C)c5)cc34)cn2)CC1 [Example 165, 1-[4-(4-{7-amino-2-[3-(propan-2-yloxy)phenyl]furo[2,3-c}pyridin-4-yl}-1H-pyrazol-1-yl)piperidin-1-yl}ethanone] | 5.00 to 6.00 |
| CC(=O)N1CCC(n2cc(-c3cnc(N)c4oc(-c5cccc(OCc6ccccc6Cl)c5)cc34)cn2)CC1 [Example 166, 1-{4-[4-(7-amino-2-{3-[(2-chlorobenzyl)oxy]phenyl}furo[2,3-c]pyridin-4-yl)-1H-pyrazol-1-yl]piperidin-1-yl}ethanone] | < 5.00 |
| CC(=O)N1CCC(n2cc(-c3cnc(N)c4oc(-c5ccc6cc[nH]c6c5)cc34)cn2)CC1 [Example 167, 1-(4-{4-[7-amino-2-(1H-indol-6-yl)furo[2,3-c]pyridin-4-yl}-1H-pyrazol-1-yl}piperidin-1-yl)ethanone] | 5.00 to 6.00 |
| CC(=O)N1CCC(n2cc(-c3cnc(N)c4oc(-c5cnc6ccccc6c5)cc34)cn2)CC1 [Example 168, 1-(4-{4-[7-amino-2-(quinolin-3-yl)furo[2,3-c]pyridin-4-yl]-1H-pyrazol-1-yl}piperidin-1-yl)ethanone] | 5.00 to 6.00 |
| CC(=O)N1CCC(n2cc(-c3cnc(N)c4oc(-c5ccc(C#N)cc5)cc34)cn2)CC1 [Example 170, 4-{4-[1-(1-acetylpiperidin-4-yl)-1H-pyrazol-4-yl]-7-aminofuro[2,3-c]pyridin-2-yl}benzonitrile] | 5.00 to 6.00 |
| CC(=O)N1CCC(n2cc(-c3cnc(N)c4oc(-c5ccccc5C(N)=O)cc34)cn2)CC1 [Example 172, 2-{4-[1-(1-acetylpiperidin-4-yl)-1H-pyrazol-4-yl]-7-aminofuro[2,3-c]pyridin-2-yl}benzamide] | 5.00 to 6.00 |
| CC(=O)N1CCC(n2cc(-c3cnc(N)c4oc(-c5ccc(OC(F)(F)F)cc5)cc34)cn2)CC1 [Example 173, 1-[4-(4-{7-amino-2-[4-(trifluoromethoxy)phenyl]furo[2,3-c]pyridin-4-yl}-1H-pyrazol-1-yl)piperidin-1-yl]ethanone] | < 5.00 |
